{"source": "patent US8822449B2", "about": "“Substituted aminoindanes and analogs thereof, and the pharmaceutical use thereof” (Sanofi, priority 2008, dated 2014)", "data": [{"molecular_target": "T1, sodium-proton exchanger of subtype 3 (NHE3) (Homo sapiens, UniProt P48764)", "T1 construct": "expressed in transfected cells", "T1 sequence (P48764 26-834)": "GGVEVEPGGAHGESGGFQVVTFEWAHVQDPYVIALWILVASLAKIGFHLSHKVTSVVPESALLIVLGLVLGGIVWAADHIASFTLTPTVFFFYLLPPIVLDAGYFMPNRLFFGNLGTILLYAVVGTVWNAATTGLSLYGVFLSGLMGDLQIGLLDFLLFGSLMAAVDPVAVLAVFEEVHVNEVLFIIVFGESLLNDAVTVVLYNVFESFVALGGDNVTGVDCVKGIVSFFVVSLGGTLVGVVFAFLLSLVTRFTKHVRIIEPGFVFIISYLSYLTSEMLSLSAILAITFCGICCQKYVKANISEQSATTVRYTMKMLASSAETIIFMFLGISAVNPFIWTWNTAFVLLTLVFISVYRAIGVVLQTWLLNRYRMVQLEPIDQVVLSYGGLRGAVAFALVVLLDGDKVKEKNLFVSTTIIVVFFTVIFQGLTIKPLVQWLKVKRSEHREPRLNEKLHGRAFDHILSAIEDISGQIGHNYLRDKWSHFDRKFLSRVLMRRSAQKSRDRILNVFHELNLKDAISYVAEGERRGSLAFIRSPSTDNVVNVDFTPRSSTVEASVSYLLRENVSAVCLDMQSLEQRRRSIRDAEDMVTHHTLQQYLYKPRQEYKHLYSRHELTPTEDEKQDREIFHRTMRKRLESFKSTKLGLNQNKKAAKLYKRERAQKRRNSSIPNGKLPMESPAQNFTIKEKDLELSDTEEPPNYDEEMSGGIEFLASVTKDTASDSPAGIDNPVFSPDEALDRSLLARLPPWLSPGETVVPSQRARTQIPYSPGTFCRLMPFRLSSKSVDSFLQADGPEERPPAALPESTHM", "assay": "Recovery of intracellular pH (pHi) after acidification in LAP1 cells stably expressing NHE3 (BCECF fluorescence, FLIPR)", "type": "cell-based", "conditions": "LAP1 cells stably expressing NHE3; pH recovery after acidification; range 1 is % inhibition at 10 μM; read-out: Activity range (inhibitory effect on NHE3)", "units": {"IC50": "nM", "inhibition at 10 µM": "%"}, "values": [{"smiles": "CC(=O)Nc1cccc(O[C@H]2c3cc(Cl)cc(Cl)c3C[C@@H]2N2CCNCC2)c1", "note": "(racemic) [Example 647, N-[3-(rac-trans-(1,2)-4,6-dichloro-2-piperazin-1-ylindan-1-yloxy)phenyl]acetamide]", "IC50": "1000 to 10000"}, {"smiles": "CN(C)[C@H]1Cc2c(Cl)cc(Cl)cc2[C@@H]1Oc1ccc(-n2ccnc2)cc1", "note": "(racemic) [Example 216, [rac-trans-(1,2)-4,6-dichloro-1-(4-imidazol-1-ylphenoxy)indan-2-yl]dimethylamine]", "inhibition at 10 µM": "20 to 50"}, {"smiles": "N#Cc1ccc(O[C@@H]2c3ccccc3C[C@H]2N2C[C@H]3CNC[C@H]3C2)cc1Cl", "note": "(racemic) [Example 393, 2-chloro-4-[rac-trans-(1,2)-2-(hexahydropyrrolo[3,4-c]pyrrol-2-yl)indan-1-yloxy]benzonitrile]", "IC50": "1000 to 10000"}, {"smiles": "N#Cc1ccc2cccc(O[C@H]3c4ccccc4CC[C@@H]3N3CCC[C@H](N)C3)c2n1", "note": "(racemic) [Example 596, 8-[rac-trans-(1,2)-2-((S)-3-aminopiperidin-1-yl)-1,2,3,4-tetrahydronaphthalen-1-yloxy]quinoline-2-carbonitrile]", "IC50": "1000 to 10000"}, {"smiles": "Cc1ccc(O[C@@H]2c3ccccc3C[C@H]2N2C[C@H]3CNC[C@H]3C2)c(Br)c1", "note": "(racemic) [Example 10, 2-[rac-trans-(1,2)-1-(2-bromo-4-methylphenoxy)indan-2-yl]octahydropyrrolo[3,4-c]pyrrole]", "IC50": "1000 to 10000"}, {"smiles": "CC1(C)NC(=O)N(c2ccc(F)c(O[C@H]3c4cc(Cl)cc(F)c4C[C@@H]3N3CC[C@@H](O)C3)c2)C1=O", "note": "[Example 420, 3-{3-[(1S,2S)-6-chloro-4-fluoro-2-((R)-3-hydroxypyrrolidin-1-yl)indan-1-yloxy]-4-fluorophenyl}-5,5-dimethylimidazolidine-2,4-dione]", "IC50": "1000 to 10000"}, {"smiles": "N[C@H]1CCCN([C@@H]2Cc3ccccc3[C@H]2Oc2cccc(CN3CCCCC3)c2)C1", "note": "(racemic) [Example 170, (S)-1-[rac-trans-(1,2)-1-(3-piperidin-1-ylmethylphenoxy)indan-2-yl]piperidin-3-ylamine]", "IC50": "1000 to 10000"}, {"smiles": "COc1cc(Cl)ccc1O[C@H]1c2ccccc2CC[C@@H]1N1CCC[C@@H](N)C1", "note": "(racemic) [Example 64, (R)-1-[rac-trans-(1,2)-1-(4-chloro-2-methoxyphenoxy)-1,2,3,4-tetrahydronaphthalen-2-yl]piperidin-3-ylamine]", "inhibition at 10 µM": "20 to 50"}, {"smiles": "Cc1ccc(F)c(O[C@H]2c3ccccc3CC[C@@H]2N2CCC[C@H](N)C2)c1", "note": "(racemic) [Example 155, (S)-1-[rac-trans-(1,2)-1-(2-fluoro-5-methylphenoxy)-1,2,3,4-tetrahydronaphthalen-2-yl]piperidin-3-ylamine]", "inhibition at 10 µM": "20 to 50"}, {"smiles": "NS(=O)(=O)c1ccc(O[C@H]2c3ccccc3C[C@@H]2CN2CCCC2)c(F)c1", "note": "(racemic) [Example 452, 3-fluoro-4-(2-pyrrolidin-1-ylmethylindan-1-yloxy)benzenesulfonamide]", "IC50": "1000 to 10000"}, {"smiles": "c1ccc2c(c1)C[C@H](N1CCCC1)[C@H]2Oc1cccc2cccnc12", "note": "(racemic) [Example 595, 8-(rac-trans-(1,2)-2-pyrrolidin-1-ylindan-1-yloxy)quinoline]", "IC50": "1000 to 10000"}, {"smiles": "Cn1ccn(-c2ccc(F)c(O[C@H]3c4cc(Cl)cc(F)c4C[C@@H]3N3CC[C@@H](O)C3)c2)c1=O", "note": "[Example 318, 1-{3-[(1S,2S)-6-chloro-4-fluoro-2-((R)-3-hydroxypyrrolidin-1-yl)indan-1-yloxy]-4-fluorophenyl}-3-methyl-1,3-dihydroimidazol-2-one]", "IC50": "< 1000"}, {"smiles": "N#Cc1ccc(O[C@H]2c3ccccc3CC[C@@H]2N2CCC[C@H](N)C2)c(Cl)c1", "note": "(racemic) [Example 532, 4-[rac-trans-(1,2)-2-((S)-3-aminopiperidin-1-yl)-1,2,3,4-tetrahydronaphthalen-1-yloxy]-3-chlorobenzonitrile]", "IC50": "1000 to 10000"}, {"smiles": "N#Cc1ccc(O[C@H]2c3ccccc3CC[C@@H]2N2CCC[C@H](N)C2)cc1Cl", "note": "(racemic) [Example 529, 4-[rac-trans-(1,2)-2-((S)-3-aminopiperidin-1-yl)-1,2,3,4-tetrahydronaphthalen-1-yloxy]-2-chlorobenzonitrile]", "inhibition at 10 µM": "20 to 50"}, {"smiles": "COc1ccc(C)cc1O[C@H]1c2ccccc2CC[C@@H]1N1CCC[C@@H](N)C1", "note": "(racemic) [Example 46, (R)-1-[rac-trans-(1,2)-1-(2-methoxy-5-methylphenoxy)-1,2,3,4-tetrahydronaphthalen-2-yl]piperidin-3-ylamine]", "inhibition at 10 µM": "20 to 50"}, {"smiles": "CS(=O)(=O)Nc1ccc(C(=O)O[C@H]2c3ccccc3C[C@@H]2N2CCCC2)c(Cl)c1", "note": "[Example 394, 2-chloro-4-methanesulfonylaminobenzoic acid (1S,2S)-2-pyrrolidin-1-ylindan-1-yl ester]", "IC50": "1000 to 10000"}, {"smiles": "O=C1CSC(=O)N1c1ccc(O[C@H]2c3cc(Cl)cc(Cl)c3C[C@@H]2N2CC[C@@H](O)C2)cc1", "note": "[Example 428, 3-{4-[(1S,2S)-4,6-dichloro-2-((R)-3-hydroxypyrrolidin-1-yl)indan-1-yloxy]phenyl}thiazolidine-2,4-dione]", "IC50": "< 1000"}, {"smiles": "CS(=O)(=O)c1ccc(O[C@H]2c3cc(Cl)cc(Cl)c3C[C@@H]2N2CC[C@@H](C#N)C2)cc1", "note": "[Example 105, (R)-1-[trans-(1S,2S)-4,6-dichloro-1-(4-methanesulfonylphenoxy)indan-2-yl]pyrrolidine-3-carbonitrile]", "IC50": "1000 to 10000"}, {"smiles": "O=C1CCC(=O)N1c1cccc(O[C@H]2c3ccccc3C[C@@H]2N2CCCC2)c1", "note": "(racemic) [Example 256, 1-[3-(rac-trans-(1,2)-2-pyrrolidin-1-ylindan-1-yloxy)phenyl]pyrrolidine-2,5-dione]", "IC50": "1000 to 10000"}, {"smiles": "CCc1nc(C)cn1-c1ccc(O[C@H]2c3cc(Cl)cc(Cl)c3C[C@@H]2N2CC[C@@H](O)C2)cc1", "note": "[Example 712, (R)-1-{trans-(1S,2S)-4,6-Dichloro-1-[4-(2-ethyl-4-methyl-imidazol-1-yl)-phenoxy]-indan-2-yl}-pyrrolidin-3-ol]", "IC50": "1000 to 10000"}, {"smiles": "CS(=O)(=O)c1ccc(OC2c3ccccc3CC2N2CCCC2)c(Cl)c1", "note": "(racemic) [Example 265, 1-[rac-trans-(1,2)-1-(2-chloro-4-methanesulfonylphenoxy)indan-2-yl]pyrrolidine]", "IC50": "< 1000"}, {"smiles": "O=C1CCCN1c1ccc(O[C@H]2c3cc(Cl)cc(Cl)c3C[C@@H]2N2CCCC2)cc1", "note": "[Example 260, 1-[4-((1S,2S)-4,6-dichloro-2-pyrrolidin-1-ylindan-1-yloxy)phenyl]pyrrolidin-2-one]", "IC50": "1000 to 10000"}, {"smiles": "CCOC(=O)c1ncoc1-c1ccc(O[C@H]2c3ccccc3CC[C@@H]2N2CCC[C@H](N)C2)cc1", "note": "(racemic) [Example 584, 5-{4-[rac-trans-(1,2)-2-((S)-3-aminopiperidin-1-yl)-1,2,3,4-tetrahydronaphthalen-1-yloxy]phenyl}oxazole-4-carboxylic acid ethyl ester]", "IC50": "1000 to 10000"}, {"smiles": "COCCc1ccc(O[C@H]2c3ccccc3CC[C@@H]2N2CCC[C@@H](N)C2)cc1", "note": "(racemic) [Example 115, (R)-1-{rac-trans-(1,2)-1-[4-(2-methoxyethyl)phenoxy]-1,2,3,4-tetrahydronaphthalen-2-yl}piperidin-3-ylamine]", "inhibition at 10 µM": "20 to 50"}, {"smiles": "NCC1CCN([C@@H]2Cc3ccccc3[C@H]2Oc2ccc(S(N)(=O)=O)c(Cl)c2Cl)C1", "note": "(mixture of isomers) [Example 538, 4-[rac-trans-(1,2)-2-(3-aminomethylpyrrolidin-1-yl)indan-1-yloxy]-2,3-dichlorobenzenesulfonamide]", "IC50": "1000 to 10000"}, {"smiles": "Cc1nnc(C)n1-c1ccc(O[C@H]2c3cc(Cl)cc(Cl)c3C[C@@H]2N2CC[C@H](O)C2)cc1", "note": "[Example 206, (S)-1-{trans-(1S,2S)-4,6-dichloro-1-[4-(3,5-dimethyl-[1,2,4]triazol-4-yl)phenoxy]indan-2-yl}pyrrolidin-3-ol]", "IC50": "< 1000"}, {"smiles": "CSc1ccc(O[C@H]2c3ccccc3CC[C@@H]2N2CCC[C@H](N)C2)cc1", "note": "(racemic) [Example 183, (S)-1-[rac-trans-(1,2)-1-(4-methylsulfanylphenoxy)-1,2,3,4-tetrahydronaphthalen-2-yl]piperidin-3-ylamine]", "inhibition at 10 µM": "20 to 50"}, {"smiles": "CN1CCN([C@H]2Cc3c(Cl)cc(Cl)cc3[C@@H]2Oc2ccc(C#N)cc2F)CC1", "note": "[Example 485, 4-[(1S,2S)-4,6-dichloro-2-(4-methylpiperazin-1-yl)indan-1-yloxy]-3-fluorobenzonitrile]", "inhibition at 10 µM": "20 to 50"}, {"smiles": "CCC(=O)c1cc(F)c(O[C@H]2c3ccccc3CC[C@@H]2N2CCC[C@H](N)C2)c(F)c1", "note": "(racemic) [Example 327, 1-{4-[rac-trans-(1,2)-2-((S)-3-aminopiperidin-1-yl)-1,2,3,4-tetrahydronaphthalen-1-yloxy]-3,5-difluorophenyl}propan-1-one]", "inhibition at 10 µM": "20 to 50"}, {"smiles": "CS(=O)(=O)c1ccccc1O[C@H]1c2ccccc2CC[C@@H]1N1CCOCC1", "note": "(racemic) [Example 506, 4-[rac-trans-(1,2)-1-(2-methanesulfonylphenoxy)-1,2,3,4-tetrahydronaphthalen-2-yl]morpholine]", "inhibition at 10 µM": "20 to 50"}]}]}
